Experimental data taken from patent publication US20200230126A1, “TARGETED THERAPEUTICS” (TARVEDA THERAPEUTICS, INC., priority 2017, published 2020).

Test: In-use stability study of dosing solutions in 5% Mannitol (mixing container, syringe pump, administration set)
Type: physicochemical
Method: In this study, SDC-TRAP-0063 sodium was dissolved in 5% Mannitol within the concentration range of 3-12 mg/mL. The stabilities of the SDC-TRAP-0063/Mannitol solution in an infusion container and during administration via a syringe pump were studied.
Dosing solutions of 3, 6 and 12 mg/mL of SDC-TRAP-0063 Na were prepared in 250 mL Intravia mixing containers. Pre-determined numbers of vials of SDC-TRAP-0063 Na were re-constituted with WFI and SDC-TRAP-0063 Na was transferred into mixing containers containing 5% mannitol. Each preparation was performed in duplicate.
An in-use test was performed to simulate the clinical infusion process. Freshly prepared dosing solutions were withdrawn from the Intravia containers with the specified syringe size and volume, plus an additional 2 mL for flushing the administration set. The volume of the IV administration set is O.7 mL; the 2 mL flush volume was selected according to standard pharmacy practice. After the administration set was flushed, the syringe was placed on a syringe pump and held at room temperature for 4 hours followed by a 2-hour infusion process. For the 15 mg dose level the simulation infusion was for 1 hour, because the minimal infusion rate specified by clinic was not less than 5 mL/hour. Samples were collected from the mixing containers at T0 and T2 hours and from the administration sets at T0 and from the bulk container at the end of infusion, at T5 hours for 15 mg sample and at T6 hours for all other samples, as outlined in Table 8.
A flexible bracketing design, intended to cover possible syringe volumes from 10 to 60 mL of nominal volumes, possible variation of the syringe fill volumes from 10 to 75% of the nominal syringe volume and concentration ranges of the dosing solutions from 3 to 12 mg/ml was executed in this study. The maximum fill volume for each syringe is limited to 75% of the nominal volume.

In the case of `CCc1c2c(nc3ccc(OC(=O)N4CCC(CCn5ccc6cc(-n7c(O)nnc7-c7cc(C(C)C)c(O)cc7O)ccc65)CC4)cc13)-c1cc([C@@](O)(CC)C(=O)[O-])c(CO)c(=O)n1C2.[Na+]` [SDC-TRAP-0063 Sodium, Sodium (S)-2-(2-((4-(2-(5-(3-(2,4-dihydroxy-5-isopropylphenyl)-5-hydroxy-4H-1,2,4-triazol-4-yl)-1H-indol-1-yl)ethyl)piperidine-1-carbonyl)oxy)-12-ethyl-8-(hydroxymethyl)-9-oxo-9,11-dihydroindolizino[1,2-b]quinolin-7-yl)-2-hydroxybutanoate], the total impurities (2-hour storage in mixing containers and total of 6 hours simulated hold and infusion (5 hours for 15 mg dose)) is reported as “within the acceptable ranges”, the HPLC assay values (3, 6 and 12 mg/mL, samples collected during the study) is reported as “did not show any trends and were within expected ranges” and the “appearance of test samples” value (3, 6 and 12 mg/mL, up to 6 hours) is reported as “clear solutions essentially free of particles”. The in-use stability profile (concentration range of 3-12 mg/mL) was “acceptable stability profile”.
